Measured values as given in patent US8389482B2, “Short peptides useful for treatment of ischemia/reperfusion injury and other tissue damage conditions associated with nitric oxide and its reactive species” (New York University, priority 2007, dated 2013).
Residues, ends and D or L forms follow the SMILES beside them.

Experiments:
[1] = system: myocardial tissue 3-NT; conditions: cited from earlier work
[2] = system: myocardial ischemia (MI) in rats; conditions: cited from earlier work
[3] = system: rat model of myocardial infarction; assay: Myocardial ischemia-reperfusion (MI/R) injury in a rat model of myocardial infarction, infarct size NA/AR; type: in vivo
Experimental: (§1) Myocardial ischemia (MI) was produced in anaesthetized adult male Wistar rats (300-350 grams) under controlled ventilation. After thoracotomy at the fourth intercostal space, the heart was exteriorized and a 6-0 silk ligature was passed under the left coronary artery with a needle. After 30 minutes of MI, the ligature was released and the myocardium was reperfused for 1 hour. Rats were randomized 5 minutes after the beginning of reperfusion to receive either vehicle (control, n=6) or L-CEFH peptide (0.7 mg/kg; n=9) i.v. The extent of MI/R injury, or infarct size, was determined by calculating the ratio of the area of necrosis (NA) to the area at risk (AR). Accumulation of 3-NT in the tested heart tissue corresponding to the area at risk was analyzed by Western dot-immunoblotting of total protein (extracted from the area at risk) with antibodies against 3-NT.
Rat model of myocardial infarction was generated as disclosed in Example 3, above. 0, 0.02, 0.05, 0.1, 0.14, 0.35, and 0.7 mg/kg of D-CEFH peptide (N≦4 for each concentration) were administered i.v. The extent of MI/R injury, or infarct size, was determined by calculating the ratio of the area of necrosis (NA) to the area at risk (AR).

[4] = system: 3-nitrotyrosine (3-NT) in myocardial tissue; assay: 3-NT accumulation in heart tissue (area at risk) in a rat model of MI, dot-immunoblotting with anti-3-NT antibodies; type: in vivo; conditions: 0.7 mg/kg i.v. 5 minutes after beginning of reperfusion
Experimental: as §1

[5] = system: peroxynitrite (ONOO)-nitrated albumin; assay: In vitro denitration of peroxynitrite-nitrated albumin, dot-immunoblotting with antibodies against 3-NT; type: biochemical; conditions: 20 μM peptide, 10 mM Tris HCl pH 7.2, 25° C., after 10 minutes
From the text: Several groups have previously reported an in vivo denitration phenomenon (e.g., Kamisaki et al (1998) Proc Natl Acad Sci USA 95: 11584-11589; Aulak et al (2004) Am J Physiol Heart Circ Physiol 286: H30-H38). However, they tried to isolate denitration activity using pure 3-NT and failed. The present inventors have hypothesized that the stability of pure 3-NT is much higher than the stability of 3-NT incorporated in a protein and used ONOO-nitrated albumin as the substrate for detecting denitration activity.
To test the ability of L-CEFH peptide (Cys-Glu-Phe-His; SEQ ID NO: 1) to mediate 3-NT denitration in vitro, 20 μM CEFH peptide solution containing 10 mM Tris HCl pH 7.2 was added to albumin previously nitrated by peroxynitrite (ONOO^−). Denitration of the peroxynitrite (ONOO)-nitrated albumin following 0, 3, or 10 minutes of incubation with L-CEFH peptide was then visualized by dot-immunoblotting with antibodies against 3-NT.

[6] = system: HeLa cells; assay: HeLa cell survival upon NO/ONOO- exposure, MTS-based assay; conditions: 20 μM peptide vs 5 mM cysteine
Experimental: The ability of the L-CEFH peptide (Cys-Glu-Phe-His; SEQ ID NO: 1) to reduce cell death caused by nitric oxide (NO) and peroxynitrite (ONOO^−) was tested in cell culture. Following treatment with NO/ONOO^−, HeLa cells were incubated with either a control buffer, 5 mM cysteine, or 20 μM L-CEFH peptide for 40 minutes. The percentage of cells surviving was determined by a MTS-based assay (available from Promega, Madison, Wis.).

[7] = 5 mg/kg i.v., infused 1 minute prior to ischemia

Compound: COC(=O)[C@@H](N)CCCNC(=N)N[N+](=O)[O-] [L-NAME]
- 3-NT ([1]; 50 mg/kg i.p.): reduction
- infarct size ([2]; 50 mg/kg i.p.): reduction

Compound: Cys-Glu-Phe-His [D-CEFH]
- fold lower concentration than L-CEFH for the same effect in preventing MI/R injury ([3]; 0.05 mg/kg vs 0.7 mg/kg, i.v.): 14 fold
- activity in preventing MI/R injury as compared to L-CEFH ([3]; i.v., rat model of MI): superior activity
- dose producing maximal effect in preventing MI/R injury ([3]; i.v., rat model of MI): 0.1 mg/kg
- dose producing the same effect as the maximal effect of L-CEFH (0.7 mg/kg) ([3]; i.v., rat model of MI): 0.05 mg/kg

Compound: N[C@@H](CS)C(=O)N[C@@H](CCC(=O)O)C(=O)N[C@@H](Cc1ccccc1)C(=O)N[C@@H](Cc1c[nH]cn1)C(=O)O [L-CEFH, Cys-Glu-Phe-His] (H-CEFH-OH; N-terminus and C-terminus assumed)
- reduction of 3-NT accumulation as compared to the control [4]: about 70%
- decrease in the infarct size (NA/AR) as compared to the control ([3]; 0.7 mg/kg i.v. 5 minutes after beginning of reperfusion, 30 min MI, 1 hour reperfusion): 3-5 fold
- dose producing maximal effect in preventing MI/R injury ([3]; i.v., rat model of MI): 0.7 mg/kg
- denitration of peroxynitrite (ONOO)-nitrated albumin [5]: > 90%
- times lower concentration than cysteine giving equivalent efficacy [6]: 250 times

Compound: O=NO [sodium nitrite]
- myocardial tissue 3-NT accumulation compared with saline treated controls [1, 7]: significant expansion
- I/R infarct size compared with saline treated controls [2, 7]: significant expansion
